Assay results from US11053204B2, “Pyrimidinyloxy benzene derivatives as herbicides” (FMC Corporation, priority 2015, dated 2021).

Key:
Assay type in all cases: in vivo
[1] = tested on: Italian ryegrass (Lolium multiflorum); test: Test A preemergence, visual injury rating; settings: for Ryegrass, Italian plant response rating: 0 to 100 scale (0 no effect, 100 complete control)
Outline: (§1)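 Greenhouse pot test, loam/sand soil. Formulation: non-phytotoxic solvent mix plus surfactant. Pre: directed spray onto soil after sowing. Post: plants at 1–2 leaf, 2–10 cm. Rated visually vs untreated controls at ~10 d, 0 (no effect) to 100 (complete control).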

[2] = tested on: barnyardgrass (Echinochloa crus-galli); test: Test A preemergence, visual injury rating; settings: for Barnyardgrass plant response rating: 0 to 100 scale (0 no effect, 100 complete control)
Outline: as §1

[3] = tested on: giant foxtail (Setaria faberii); test: Test A preemergence, visual injury rating; settings: for Foxtail, Giant plant response rating: 0 to 100 scale (0 no effect, 100 complete control)
Outline: as §1

[4] = tested on: kochia (Kochia scoparia); test: Test A preemergence, visual injury rating; settings: for Kochia plant response rating: 0 to 100 scale (0 no effect, 100 complete control)
Outline: as §1

[5] = tested on: pigweed (Amaranthus retroflexus); test: Test A preemergence, visual injury rating; settings: for Pigweed plant response rating: 0 to 100 scale (0 no effect, 100 complete control)
Outline: as §1

[6] = tested on: ragweed (common ragweed, Ambrosia elatior); test: Test A preemergence, visual injury rating; settings: for Ragweed plant response rating: 0 to 100 scale (0 no effect, 100 complete control)
Outline: as §1

[7] = tested on: Italian ryegrass (Lolium multiflorum); test: Test A postemergence, visual injury rating; settings: 0 is no effect, 100 is complete control; for Ryegrass, Italian plant response rating: 0 to 100 scale, approximately 10 days
Outline: as §1

[8] = tested on: barnyardgrass (Echinochloa crus-galli); test: Test A postemergence, visual injury rating; settings: 0 is no effect, 100 is complete control; for Barnyardgrass plant response rating: 0 to 100 scale, approximately 10 days
Outline: as §1

[9] = tested on: blackgrass (Alopecurus myosuroides); test: Test A postemergence, visual injury rating; settings: 0 is no effect, 100 is complete control; for Blackgrass plant response rating: 0 to 100 scale, approximately 10 days
Outline: as §1

[10] = tested on: corn (Zea mays); test: Test A postemergence, visual injury rating; settings: 0 is no effect, 100 is complete control; for Corn plant response rating: 0 to 100 scale, approximately 10 days
Outline: as §1

[11] = tested on: galium (catchweed bedstraw, Galium aparine); test: Test A postemergence, visual injury rating; settings: 0 is no effect, 100 is complete control; for Galium plant response rating: 0 to 100 scale, approximately 10 days
Outline: as §1

[12] = tested on: giant foxtail (Setaria faberii); test: Test A postemergence, visual injury rating; settings: 0 is no effect, 100 is complete control; for Foxtail, Giant plant response rating: 0 to 100 scale, approximately 10 days
Outline: as §1

[13] = tested on: kochia (Kochia scoparia); test: Test A postemergence, visual injury rating; settings: 0 is no effect, 100 is complete control; for Kochia plant response rating: 0 to 100 scale, approximately 10 days
Outline: as §1

[14] = tested on: pigweed (Amaranthus retroflexus); test: Test A postemergence, visual injury rating; settings: 0 is no effect, 100 is complete control; for Pigweed plant response rating: 0 to 100 scale, approximately 10 days
Outline: as §1

[15] = tested on: ragweed (common ragweed, Ambrosia elatior); test: Test A postemergence, visual injury rating; settings: 0 is no effect, 100 is complete control; for Ragweed plant response rating: 0 to 100 scale, approximately 10 days
Outline: as §1

[16] = tested on: wheat (Triticum aestivum); test: Test A postemergence, visual injury rating; settings: 0 is no effect, 100 is complete control; for Wheat plant response rating: 0 to 100 scale, approximately 10 days
Outline: as §1

[17] = tested on: barnyardgrass (Echinochloa crus-galli); test: Test B flooded paddy test, plant response rating; settings: 250 g ai/ha; Flood; scale of 0 to 100 where 0 is no effect and 100 is complete control; 13 to 15 days
Outline: (§2)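 Compound was added to standing water 3 cm above soil, flood maintained, and plants held in a greenhouse before visual scoring against controls at 13 to 15 days.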

[18] = tested on: ducksalad (Heteranthera limosa); test: Test B flooded paddy test, plant response rating; settings: 250 g ai/ha; Flood; scale of 0 to 100 where 0 is no effect and 100 is complete control; 13 to 15 days
Outline: as §2

[19] = tested on: rice (Oryza sativa); test: Test B flooded paddy test, plant response rating; settings: 250 g ai/ha; Flood; scale of 0 to 100 where 0 is no effect and 100 is complete control; 13 to 15 days
Outline: as §2

[20] = tested on: sedge, umbrella (small-flower umbrella sedge, Cyperus difformis); test: Test B flooded paddy test, plant response rating; settings: 250 g ai/ha; Flood; scale of 0 to 100 where 0 is no effect and 100 is complete control; 13 to 15 days
Outline: as §2

[21] = 31 g ai/ha, 0 to 100 scale, 0 no effect, 100 complete control

## N#Cc1cccc(Oc2ncc(Cl)cn2)c1COCCCC(F)(F)F [Compound 81]
[1]; [21]
  Plant response rating, Ryegrass, Italian: 0
[1]; 125 g ai/ha
  Ryegrass, Italian plant response rating: 20
[2]; [21]
  Plant response rating, Barnyardgrass: 10
[2]; 125 g ai/ha
  Barnyardgrass plant response rating: 90
[3]; [21]
  Plant response rating, Foxtail, Giant: 30
[3]; 125 g ai/ha
  Foxtail, Giant plant response rating: 100
[4]; [21]
  Plant response rating, Kochia: 0
[4]; 125 g ai/ha
  Kochia plant response rating: 90
[5]; [21]
  Plant response rating, Pigweed: 100
[5]; 125 g ai/ha
  Pigweed plant response rating: 100
[6]; [21]
  Plant response rating, Ragweed: 0
[6]; 125 g ai/ha
  Ragweed plant response rating: 0
[7]; 31 g ai/ha
  Ryegrass, Italian plant response rating: 0
[7]; 125 g ai/ha
  Ryegrass, Italian plant response rating: 10
[8]; 31 g ai/ha
  Barnyardgrass plant response rating: 10
[8]; 125 g ai/ha
  Barnyardgrass plant response rating (0 to 100 scale): 50
[9]; 31 g ai/ha
  Blackgrass plant response rating: 10
[9]; 125 g ai/ha
  Blackgrass plant response rating (0 to 100 scale): 40
[10]; 31 g ai/ha
  Corn plant response rating: 10
[10]; 125 g ai/ha
  Corn plant response rating (0 to 100 scale): 40
[11]; 31 g ai/ha
  Galium plant response rating: 30
[11]; 125 g ai/ha
  Galium plant response rating (0 to 100 scale): 80
[12]; 31 g ai/ha
  Foxtail, Giant plant response rating: 20
[12]; 125 g ai/ha
  Foxtail, Giant plant response rating (0 to 100 scale): 70
[13]; 31 g ai/ha
  Kochia plant response rating: 30
[13]; 125 g ai/ha
  Kochia plant response rating: 50
[14]; 31 g ai/ha
  Pigweed plant response rating: 50
[14]; 125 g ai/ha
  Pigweed plant response rating: 100
[15]; 31 g ai/ha
  Ragweed plant response rating: 0
[15]; 125 g ai/ha
  Ragweed plant response rating: 10
[16]; 31 g ai/ha
  Wheat plant response rating: 0
[16]; 125 g ai/ha
  Wheat plant response rating: 0
[17]
  Plant response rating, Barnyardgrass: 45
[18]
  Plant response rating, Ducksalad: 100
[19]
  Plant response rating, Rice: 0
[20]
  Plant response rating, Sedge, Umbrella: 100

## CCSC(=O)c1c(Br)cccc1Oc1ncc(Cl)cn1 [Compound 83]
[1]; 125 g ai/ha
  Ryegrass, Italian plant response rating: 0
[1]; 500 g ai/ha
  Ryegrass, Italian plant response rating: 0
[2]; 125 g ai/ha
  Barnyardgrass plant response rating: 30
[2]; 500 g ai/ha
  Barnyardgrass plant response rating: 90
[3]; 125 g ai/ha
  Foxtail, Giant plant response rating: 90
[3]; 500 g ai/ha
  Foxtail, Giant plant response rating: 100
[4]; 125 g ai/ha
  Kochia plant response rating: 0
[4]; 500 g ai/ha
  Kochia plant response rating: 0
[5]; 125 g ai/ha
  Pigweed plant response rating: 30
[5]; 500 g ai/ha
  Pigweed plant response rating: 90
[6]; 125 g ai/ha
  Ragweed plant response rating: 0
[6]; 500 g ai/ha
  Ragweed plant response rating: 0
[7]; 125 g ai/ha
  Ryegrass, Italian plant response rating: 0
[7]; 500 g ai/ha
  Ryegrass, Italian plant response rating (0 to 100 scale): 0
[8]; 125 g ai/ha
  Barnyardgrass plant response rating: 0
[8]; 500 g ai/ha
  Barnyardgrass plant response rating (0 to 100 scale): 90
[9]; 125 g ai/ha
  Blackgrass plant response rating: 0
[9]; 500 g ai/ha
  Blackgrass plant response rating (0 to 100 scale): 40
[10]; 125 g ai/ha
  Corn plant response rating: 20
[10]; 500 g ai/ha
  Corn plant response rating (0 to 100 scale): 30
[11]; 125 g ai/ha
  Galium plant response rating: 30
[11]; 500 g ai/ha
  Galium plant response rating (0 to 100 scale): 20
[12]; 125 g ai/ha
  Foxtail, Giant plant response rating: 0
[12]; 500 g ai/ha
  Foxtail, Giant plant response rating (0 to 100 scale): 80
[13]; 125 g ai/ha
  Kochia plant response rating: 30
[13]; 500 g ai/ha
  Kochia plant response rating (0 to 100 scale): 90
[14]; 125 g ai/ha
  Pigweed plant response rating: 30
[14]; 500 g ai/ha
  Pigweed plant response rating (0 to 100 scale): 70
[15]; 125 g ai/ha
  Ragweed plant response rating: 0
[15]; 500 g ai/ha
  Ragweed plant response rating (0 to 100 scale): 0
[16]; 125 g ai/ha
  Wheat plant response rating: 0
[16]; 500 g ai/ha
  Wheat plant response rating (0 to 100 scale): 0
[17]
  Plant response rating, Barnyardgrass: 0
[18]
  Plant response rating, Ducksalad: 80
[19]
  Plant response rating, Rice: 0
[20]
  Plant response rating, Sedge, Umbrella: 80
